Measured values: patent US9833466B2, “Treatment of leukemia with histone deacetylase inhibitors” (Acetylon Pharmaceuticals Inc., priority 2014, dated 2017)
pIC50: −log10 of the molar value. Entries after “also recorded” stand apart in the source; their conditions may differ.

Key:
HL-60 cells = test: HL-60 cell viability, combination with azacitidine (cell titer glo, CalcuSyn CI); format: cell-based; settings: 72 hr, CI less than 1 = synergistic
Procedure: HL-60 cells were treated with increasing doses of azacitidine with Compound E (FIG. 11A) or with Compound A (FIG. 11B) or with Compound H (FIG. 11C) or with Compound C (FIG. 11D), and cell viability was assessed at 72 hr by cell titer glo assay. The combination index (CI) and relative fraction affected (Fa) was determined at each dose level using CalcuSyn software. […] Significant enhancement of azacitidine activity is observed in combination with HDAC1/2 inhibition.

[1] = tested on: AML blast freshly derived from bone marrow of AML patients; test: Ex vivo proliferation of AML blast freshly derived from bone marrow; format: cell-based; settings: Homo sapiens; 5 bone marrow samples from AML patients; flow cytometry at 96 h; single agent; read-out: median IC50, live AML cells
Procedure: (A-B), 5 bone marrow samples derived from AML patients were treated with increasing concentrations of azacitidine, Compound A and Compound J and live AML cells were quantified by flow cytometry at 96 h. IC50 values (A) and AUC values (B) were plotted. […] The relative potency of the three drugs are Compound J>azacitidine>Compound A, consistent with the result in FIG. 2. (C) 5 bone marrow samples derived from AML patients were treated with increasing doses of azacitidine with Compound J and live AML cells were quantified by flow cytometry at 96 h. The combination index (Comb IDX) were calculated and median Comb IDX values were plotted.

multiple myeloma = settings: preclinical models of multiple myeloma; cited from earlier work
AML1/ETO fusion protein = AML1/ETO fusion protein Western blot in Kasumi-1 cells; format: cell-based; settings: 24 hours
Procedure: One type of AML has a signature chromosome translocation t(8:21) and therefore expression of a unique fusion protein AML1/ETO. […] In this study, Kasumi-1 cells were exposed to different concentrations of the HDAC inhibitor Compound A, or another HDAC1/2/6 selective inhibitor Compound G (data not shown), for 24 hours. The whole cell lysates were separated by SDS-PAGE (SDS-polyacrylamide gel electrophoresis) and transferred to a membrane (Western blot). The AML1/ETO fusion protein was detected on the membrane using an AML1 specific antibody.

MV4-11 cells = test: MV4-11 tumor growth and survival in Ncr nu/nu mice; format: in vivo
Procedure: Ncr nu/nu mice implanted with MV4-11 cells were treated with vehicle, azacitidine (5 mg/kg IV q3d), or azacitidine (5 mg/kg IV q3d) plus Compound A (50 mg/kg IP 5/2/5/2/5/2/5) for up to 4 weeks. (A) Tumor volume was measured twice weekly and the mean tumor volume±SD is plotted. (B) Fold tumor volume change on day 19 relative to day 1 is plotted. (C) Survival curve was plotted.

HDAC6 = target: T1, HDAC6 (Homo sapiens, UniProt Q9UBN7); test: HDAC enzyme assays (selectivity for HDAC6); format: biochemical
T1 sequence (Q9UBN7 1-1215): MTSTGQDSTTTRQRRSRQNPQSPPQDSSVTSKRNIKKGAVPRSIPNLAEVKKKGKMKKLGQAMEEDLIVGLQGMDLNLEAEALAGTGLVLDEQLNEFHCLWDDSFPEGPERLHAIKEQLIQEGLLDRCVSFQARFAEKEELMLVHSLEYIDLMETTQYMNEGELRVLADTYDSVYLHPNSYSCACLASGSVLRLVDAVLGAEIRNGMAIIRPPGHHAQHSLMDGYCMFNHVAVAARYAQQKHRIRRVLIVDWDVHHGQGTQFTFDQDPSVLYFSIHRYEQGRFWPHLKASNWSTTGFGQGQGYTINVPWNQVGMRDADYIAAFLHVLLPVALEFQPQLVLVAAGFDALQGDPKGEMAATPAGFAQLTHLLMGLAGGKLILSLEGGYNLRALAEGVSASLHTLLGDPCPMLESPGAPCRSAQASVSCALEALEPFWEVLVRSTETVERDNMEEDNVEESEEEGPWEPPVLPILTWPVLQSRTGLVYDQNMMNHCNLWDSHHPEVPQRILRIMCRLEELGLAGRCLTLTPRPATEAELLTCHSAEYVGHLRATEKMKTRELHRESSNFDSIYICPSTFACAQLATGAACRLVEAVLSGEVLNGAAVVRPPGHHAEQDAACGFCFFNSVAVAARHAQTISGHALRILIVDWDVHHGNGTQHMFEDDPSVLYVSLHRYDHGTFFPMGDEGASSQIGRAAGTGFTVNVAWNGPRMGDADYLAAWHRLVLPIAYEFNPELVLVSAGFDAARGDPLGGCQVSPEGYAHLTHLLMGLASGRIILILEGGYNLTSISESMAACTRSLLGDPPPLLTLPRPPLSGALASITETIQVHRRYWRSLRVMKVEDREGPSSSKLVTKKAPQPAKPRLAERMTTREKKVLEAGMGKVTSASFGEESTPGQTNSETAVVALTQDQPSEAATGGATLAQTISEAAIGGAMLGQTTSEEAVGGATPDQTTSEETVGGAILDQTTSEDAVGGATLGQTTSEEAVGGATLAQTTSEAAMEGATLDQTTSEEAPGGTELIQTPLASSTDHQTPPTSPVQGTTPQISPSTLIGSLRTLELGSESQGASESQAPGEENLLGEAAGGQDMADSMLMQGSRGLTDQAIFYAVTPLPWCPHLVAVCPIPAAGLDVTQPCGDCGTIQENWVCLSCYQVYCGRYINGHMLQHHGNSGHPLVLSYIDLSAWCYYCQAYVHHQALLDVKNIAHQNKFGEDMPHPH
Procedure: Compounds for testing are diluted in DMSO to 50 fold the final concentration and a ten point three fold dilution series is made. The compounds are diluted in assay buffer (50 mM HEPES, pH 7.4, 100 mM Kill, 0.001% Tween-20, 0.05% BASE, 20 μM TEC) to 6 fold their final concentration. The HDAC enzymes (purchased from BPS Biosciences) are diluted to 1.5 fold their final concentration in assay buffer. The dipeptide substrate and trypsin at 0.05 μM final concentration are diluted in assay buffer at 6 fold their final concentration. The final enzyme concentrations to use in these assays are 3.3 ng/ml (HDAC1), 0.2 ng/ml (HDAC2), 0.08 ng/ml (HDAC3) and 2 ng/ml (HDAC6). The final substrate concentrations to use are 16 μM (HDAC1), 10 μM (HDAC2), 17 μM (HDAC3) and 14 μM (HDAC6). Five μ1 of compound and 20 μl of enzyme are added to wells of a black, opaque 384 well plate in duplicate. Enzyme and compound are incubated together at room temperature for 10 min. Five μ1 of substrate is added to each well, the plate is shaken for 60 seconds and placed into a Victor 2 microliter plate reader. The development of fluorescence is monitored for 60 min. and the linear rate of the reaction is calculated. The IC50 is determined using Graph Pad Prism by a four parameter curve fit.

[2] = Compound A 50 mg/kg IP plus azacitidine 5 mg/kg IV q3d, vs azacitidine or vehicle alone

Nc1ccc(-c2cccs2)cc1NC(=O)c1ccc2c(c1)cc(C1CC1)n2CCN1CCOCC1 [Compound E, N-(2-amino-5-(thiophen-2-yl)phenyl)-2-cyclopropyl-1-(2-morpholinoethyl)-1H-indole-5-carboxamide]
synergistic interaction with azacitidine on cell viability (CI) (HL-60 cells): strongest synergistic interaction

O=C(CCCCCCNC(=O)c1cnc(N(c2ccccc2)c2ccccc2)nc1)NO [Compound A, 2-(diphenylamino)-N-(7-(hydroxyamino)-7-oxoheptyl)pyrimidine-5-carboxamide]
pIC50 [1]: 5.14
synergy with bortezomib and immunomodulatory agents (multiple myeloma): synergizes with bortezomib
amount of AML1/ETO fusion protein (AML1/ETO fusion protein): decrease the amount of this fusion protein in a concentration dependent manner
survival (MV4-11 cells; [2]): further enhanced; also recorded: increased survival in vivo
tumor growth (MV4-11 cells; [2]): further enhanced; also recorded: reduced tumor growth in vivo
fold tumor volume change (MV4-11 cells; Compound A plus azacitidine vs azacitidine or vehicle alone, day 19 relative to day 1): reduced the fold tumor volume change

O=C(CCCCCCNC(=O)c1cnc(N(c2ccccc2)c2ccccc2Cl)nc1)NO [Compound B, 2-((2-chlorophenyl)(phenyl)amino)-N-(7-(hydroxyamino)-7-oxoheptyl)pyrimidine-5-carboxamide]
selective for HDAC6 (HDAC6): about 10 times
